According to ChEMBL document CHEMBL1201862, “PubChem BioAssay data set” (2004):
Activity calls are given as the source filed them. Rule as the data show it, for most assays here: actives have a measured IC50 and inactives only a lower limit.

How the values were obtained:
Type in all cases: functional
[1] = viability of PTEN-deleted HCT116 cells – cell-based, HCT116 PTEN knockout, dose response (AID 1047);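 also: HCT116 colon tumor cells with PTEN knocked out; cells exposed to compound for 60 hours before readout; potency for loss of cell viability measured by luminescence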
[2] = viability of HCT116 lacking mutant beta-catenin – cell-based, human colon tumor, dose response (AID 1045);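 also: HCT116 colon tumor cells with beta catenin knocked out; cells exposed to compound for 60 hours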
Caspase-3 = biological target: T1, Caspase-3 (Homo sapiens, UniProt P42574); assay: SAR Analysis of small molecule inhibitors of Sentrin-specific proteases (SENPs) using a Caspase-3 Selectivity assay. [Related pubchem assays (depositor defined):AID2540, AID2599, AID434973, AID489001]
T1 sequence (P42574 whole entry): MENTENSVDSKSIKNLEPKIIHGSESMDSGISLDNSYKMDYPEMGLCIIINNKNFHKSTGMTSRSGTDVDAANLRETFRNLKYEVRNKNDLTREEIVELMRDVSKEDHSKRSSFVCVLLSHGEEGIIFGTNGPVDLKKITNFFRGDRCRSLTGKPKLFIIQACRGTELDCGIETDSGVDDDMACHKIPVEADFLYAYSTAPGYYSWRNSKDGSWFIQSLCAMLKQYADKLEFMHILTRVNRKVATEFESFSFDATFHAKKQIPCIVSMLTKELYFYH

[3] = biological target: T2, Sentrin-specific protease 6 (Homo sapiens, UniProt Q9GZR1); assay: SAR Analysis of small molecule inhibitors of Sentrin-specific protease 6 (SENP6) using a Luminescent assay. [Related pubchem assays (depositor defined):AID2582, AID2599]
T2 sequence (Q9GZR1 whole entry): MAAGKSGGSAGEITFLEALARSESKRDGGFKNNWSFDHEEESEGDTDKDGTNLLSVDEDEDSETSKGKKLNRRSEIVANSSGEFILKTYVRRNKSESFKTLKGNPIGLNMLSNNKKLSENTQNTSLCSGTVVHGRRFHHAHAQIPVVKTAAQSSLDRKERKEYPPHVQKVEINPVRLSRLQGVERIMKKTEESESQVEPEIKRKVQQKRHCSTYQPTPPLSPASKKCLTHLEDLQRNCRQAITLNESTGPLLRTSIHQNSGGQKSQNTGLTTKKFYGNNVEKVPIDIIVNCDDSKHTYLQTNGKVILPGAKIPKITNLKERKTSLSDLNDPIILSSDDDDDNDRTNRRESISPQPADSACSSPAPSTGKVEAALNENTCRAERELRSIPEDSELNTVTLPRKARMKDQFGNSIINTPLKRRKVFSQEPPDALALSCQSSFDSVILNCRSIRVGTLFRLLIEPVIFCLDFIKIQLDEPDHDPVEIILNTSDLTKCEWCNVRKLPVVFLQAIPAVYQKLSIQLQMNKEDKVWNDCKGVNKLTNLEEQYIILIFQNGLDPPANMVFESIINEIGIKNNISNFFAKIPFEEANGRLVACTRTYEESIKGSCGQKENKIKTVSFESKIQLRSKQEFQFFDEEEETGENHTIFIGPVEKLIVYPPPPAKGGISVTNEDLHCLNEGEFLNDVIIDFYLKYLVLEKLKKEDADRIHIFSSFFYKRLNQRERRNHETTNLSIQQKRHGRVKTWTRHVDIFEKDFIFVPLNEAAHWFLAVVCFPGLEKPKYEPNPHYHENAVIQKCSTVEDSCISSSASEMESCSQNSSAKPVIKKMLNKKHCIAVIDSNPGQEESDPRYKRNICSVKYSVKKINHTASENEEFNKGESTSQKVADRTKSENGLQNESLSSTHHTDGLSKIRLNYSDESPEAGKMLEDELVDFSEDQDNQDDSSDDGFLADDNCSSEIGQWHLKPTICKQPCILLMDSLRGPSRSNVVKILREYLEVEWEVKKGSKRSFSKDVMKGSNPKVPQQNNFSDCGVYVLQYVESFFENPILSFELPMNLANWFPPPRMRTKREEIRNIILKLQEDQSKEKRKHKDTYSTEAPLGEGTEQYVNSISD

[4] = biological target: T3, Sentrin-specific protease 7 (Homo sapiens, UniProt Q9BQF6); assay: inhibition of human SENP7 cleavage activity – biochemical, luminescence, SAR follow-up (AID 504497)
T3 sequence (Q9BQF6 whole entry): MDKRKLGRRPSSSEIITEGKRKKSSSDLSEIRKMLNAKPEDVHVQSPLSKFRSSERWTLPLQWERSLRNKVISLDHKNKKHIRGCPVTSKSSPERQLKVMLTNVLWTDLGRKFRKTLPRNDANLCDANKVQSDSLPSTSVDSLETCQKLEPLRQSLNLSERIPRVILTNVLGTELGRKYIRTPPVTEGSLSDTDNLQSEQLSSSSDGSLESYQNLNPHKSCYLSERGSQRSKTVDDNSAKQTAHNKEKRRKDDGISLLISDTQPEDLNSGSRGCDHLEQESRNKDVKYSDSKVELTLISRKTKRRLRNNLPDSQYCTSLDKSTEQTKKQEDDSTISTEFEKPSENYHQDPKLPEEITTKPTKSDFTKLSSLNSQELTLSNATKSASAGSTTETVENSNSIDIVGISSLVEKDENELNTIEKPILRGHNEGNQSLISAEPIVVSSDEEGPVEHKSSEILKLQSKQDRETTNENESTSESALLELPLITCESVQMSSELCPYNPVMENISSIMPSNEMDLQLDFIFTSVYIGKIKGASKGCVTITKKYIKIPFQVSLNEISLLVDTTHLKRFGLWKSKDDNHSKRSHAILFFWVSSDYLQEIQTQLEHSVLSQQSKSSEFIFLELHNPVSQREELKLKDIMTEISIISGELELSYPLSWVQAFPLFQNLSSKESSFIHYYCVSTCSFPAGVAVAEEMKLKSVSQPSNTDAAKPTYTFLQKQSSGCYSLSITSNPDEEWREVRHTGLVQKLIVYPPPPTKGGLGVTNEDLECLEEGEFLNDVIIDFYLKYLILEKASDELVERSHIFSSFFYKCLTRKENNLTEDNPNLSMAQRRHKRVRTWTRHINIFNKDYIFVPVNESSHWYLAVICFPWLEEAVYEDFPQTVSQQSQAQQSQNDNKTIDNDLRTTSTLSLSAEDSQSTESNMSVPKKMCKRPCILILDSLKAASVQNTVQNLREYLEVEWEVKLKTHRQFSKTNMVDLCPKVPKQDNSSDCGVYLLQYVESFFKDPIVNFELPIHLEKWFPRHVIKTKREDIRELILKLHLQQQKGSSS

Oc1cccc(/C=N/Nc2cc(N3CCCC3)nc(N3CCCC3)n2)c1
EC50 [1]: 20.3 µM (active)
EC50 [2]: 18.8 µM (active)
IC50 (Caspase-3): > 99 µM (inactive)
IC50 [3]: 20.4 µM (active)
IC50 [4]: 49.7 µM (active)
